In article PMC9120017, “Inhibition mechanism of the chloride channel TMEM16A by the pore blocker 1PBC” (Nature Communications, 2022):
pIC50: −log10 of the molar value. Read-outs that look alike come from different tables or passages of the source.

Target: T1, mouse TMEM16A mutant R535A (Mus musculus, UniProt Q8BHY3, R535A)
T1 construct: expressed in transfected cells; host or cells: HEK293T
T1 sequence (Q8BHY3 1-960 R535A): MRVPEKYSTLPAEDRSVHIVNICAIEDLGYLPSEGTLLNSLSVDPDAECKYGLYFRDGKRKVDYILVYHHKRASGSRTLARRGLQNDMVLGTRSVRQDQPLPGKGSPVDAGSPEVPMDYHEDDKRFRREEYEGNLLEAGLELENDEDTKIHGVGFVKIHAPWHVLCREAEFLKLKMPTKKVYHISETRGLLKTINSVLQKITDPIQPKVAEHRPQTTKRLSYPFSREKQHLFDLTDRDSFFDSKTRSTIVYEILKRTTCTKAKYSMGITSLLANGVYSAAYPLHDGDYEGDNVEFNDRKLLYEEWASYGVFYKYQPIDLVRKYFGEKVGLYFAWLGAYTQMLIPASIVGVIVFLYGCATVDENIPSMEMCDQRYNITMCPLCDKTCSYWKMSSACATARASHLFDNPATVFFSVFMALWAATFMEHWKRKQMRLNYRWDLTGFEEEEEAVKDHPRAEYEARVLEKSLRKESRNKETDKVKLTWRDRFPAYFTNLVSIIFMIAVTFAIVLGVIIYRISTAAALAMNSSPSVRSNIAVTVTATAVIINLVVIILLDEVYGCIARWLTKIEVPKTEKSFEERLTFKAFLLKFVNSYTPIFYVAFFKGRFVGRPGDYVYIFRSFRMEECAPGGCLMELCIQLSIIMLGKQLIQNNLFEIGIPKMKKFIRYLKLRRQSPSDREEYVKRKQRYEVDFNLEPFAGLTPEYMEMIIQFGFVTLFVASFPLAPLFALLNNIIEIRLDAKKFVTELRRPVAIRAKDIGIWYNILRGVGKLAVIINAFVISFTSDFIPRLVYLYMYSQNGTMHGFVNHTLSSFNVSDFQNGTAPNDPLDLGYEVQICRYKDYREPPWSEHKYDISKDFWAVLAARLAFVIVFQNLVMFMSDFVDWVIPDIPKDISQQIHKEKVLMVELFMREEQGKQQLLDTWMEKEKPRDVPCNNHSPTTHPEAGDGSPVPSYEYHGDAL
Assay: Inside-out patch recording of 1PBC block, mutant R535A
Assay type: cell-based
Details: for remaining activity at 30 µM: 1PBC 30; for remaining activity at 30 µM / remaining activity at 100 µM: read-out: fraction of unblocked current; for remaining activity at 100 µM: 1PBC 100
Method: HEK293T cells (ATCC CRL-1573) were maintained in Dulbecco’s modified Eagle’s medium (DMEM; Sigma-Aldrich) supplemented with 10 U ml^−1 penicillin, 0.1 mg ml^−1 streptomycin (Sigma-Aldrich), 2 mM L-glutamine (Sigma-Aldrich), and 10% FBS (Sigma-Aldrich) in a humidified atmosphere containing 5% CO2 at 37 °C. HEK293S GnTI^− cells (ATCC CRL-3022) were maintained in HyClone HyCell TransFx-H medium (GE Healthcare) supplemented with 10 U ml^−1 penicillin, 0.1 mg ml^−1 streptomycin, 4 mM L-glutamine, 0.15% poloxamer 188 (Sigma-Aldrich), and 1% FBS in an atmosphere containing 5% CO2 at 185 rpm at 37 °C. The ac splice variant of mouse TMEM16A (UniProt ID: Q8BHY3), mouse TMEM16B (UniProt ID: Q8CFW1), or mouse TMEM16F (UniProt ID: Q6P9J9) bearing a 3C cleavage site, a Venus YFP, a Myc tag, and a Streptavidin-binding peptide (SBP) downstream of the open reading frame in a modified pcDNA3.1 vector (Invitrogen) were used as described previously[21],[31]. Mutations were introduced using a modified QuikChange method[58] and were verified by sequencing.
HEK293T cells were transfected with 3–4 μg DNA per 6 cm Petri dish using the calcium phosphate co-precipitation method and were used within 24–96 h after transfection. Recordings were performed on inside-out patches excised from HEK293T cells expressing the construct of interest. Patch pipettes were pulled from borosilicate glass capillaries (O.D. 1.5 mm, I.D. 0.86 mm, Sutter Instrument) and were fire-polished with a microforge (Narishige) before use. Pipette resistance was typically 3–8 MΩ when filled with the recording solutions detailed below. Seal resistance was typically 4 GΩ or higher. Voltage-clamp recordings were made using Axopatch 200B, Digidata 1550, and Clampex 10.7 (Molecular Devices). Analog signals were filtered with the in-built 4-pole Bessel filter at 10 kHz and were digitized at 20 kHz. Solution exchange was achieved using a gravity-fed system through a theta glass pipette mounted on an ultra-fast piezo-driven stepper (Siskiyou). […] All recordings were performed at 20 °C.
A symmetrical ionic condition was used throughout. Stock solution with Ca^2+-EGTA contained 150 mM NaCl, 5.99 mM Ca(OH)2, 5 mM EGTA, and 10 mM HEPES at pH 7.40. Stock solution with EGTA contained 150 mM NaCl, 5 mM EGTA, and 10 mM HEPES at pH 7.40. Free Ca^2+ concentrations were adjusted by mixing the stock solutions at the required ratios calculated using the WEBMAXC program (http://web.stanford.edu/~cpatton/webmaxcS.htm). Patch pipettes were filled with the stock solution with Ca^2+-EGTA, which has a free Ca^2+ concentration of 1 mM. 1PBC (ChemBridge) stock was reconstituted in anhydrous DMSO (Sigma-Aldrich) at 100 mM and stored at −20 °C. Working solutions with 1PBC were prepared by serial dilution. Unless otherwise stated, experiments were performed at a saturating Ca^2+ concentration as shown in Supplementary Table 1 and the primary data were corrected for current rundown as described previously[21],[25].
Concentration-response relations, obtained from the ratio of the I-V plots before and after the application of the blocker, were fitted to the Hill equation,1 I/Imax=1/1+IC50/[blocker]^h where I/Imax is the normalized current responses, IC50 defines the concentration at which inhibition is at its half-maximum, and h is the Hill coefficient.

N#Cc1c(C(F)(F)F)cc(O)n2c1nc1ccccc12 [1PBC]
remaining activity at 30 µM (-60 mV): 41.8%
remaining activity at 30 µM (-80 mV): 46.3%
remaining activity at 30 µM (-100 mV): 50.1%
remaining activity at 30 µM (-120 mV): 53.6%
remaining activity at 30 µM (-140 mV): 55.9%
remaining activity at 100 µM (0 mV): 10.2%
remaining activity at 100 µM (20 mV): 8.03%
remaining activity at 100 µM (40 mV): 6.85%
remaining activity at 100 µM (60 mV): 5.65%
remaining activity at 100 µM (80 mV): 5.26%
remaining activity at 100 µM (100 mV): 4.79%
remaining activity at 100 µM (120 mV): 4.05%
remaining activity at 100 µM (140 mV): 4.54%
remaining activity at 100 µM (-20 mV): 12.4%
remaining activity at 100 µM (-40 mV): 14.1%
remaining activity at 100 µM (-60 mV): 17.7%
remaining activity at 100 µM (-80 mV): 21.3%
remaining activity at 100 µM (-100 mV): 25.1%
remaining activity at 100 µM (-120 mV): 29%
remaining activity at 100 µM (-140 mV): 32.4%
pIC50 (20 mV, 2 µM Ca2+): 5.02
pIC50 (40 mV, 2 µM Ca2+): 5.11
pIC50 (60 mV, 2 µM Ca2+): 5.18
log-fold IC50 (change of mutant vs WT) (80 mV): 0.4043
pIC50 (80 mV, 2 µM Ca2+): 5.22
pIC50 (100 mV, 2 µM Ca2+): 5.26
pIC50 (120 mV, 2 µM Ca2+): 5.26
pIC50 (140 mV, 2 µM Ca2+): 5.24
pIC50 (-20 mV, 2 µM Ca2+): 4.83
pIC50 (-40 mV, 2 µM Ca2+): 4.75
pIC50 (-60 mV, 2 µM Ca2+): 4.67
pIC50 (-80 mV, 2 µM Ca2+): 4.59
pIC50 (-100 mV, 2 µM Ca2+): 4.52
pIC50 (-120 mV, 2 µM Ca2+): 4.45
pIC50 (-140 mV, 2 µM Ca2+): 4.41
pIC50 (R535A, V 0 mV): 4.92
pIC50 (R535A, V 20 mV): 5.02
pIC50 (R535A, V 40 mV): 5.11
pIC50 (R535A, V 60 mV): 5.18
pIC50 (R535A, V 80 mV): 5.22
pIC50 (R535A, V 100 mV): 5.26
pIC50 (R535A, V 120 mV): 5.26
pIC50 (R535A, V 140 mV): 5.24
pIC50 (R535A, V -20 mV): 4.83
pIC50 (R535A, V -40 mV): 4.75
pIC50 (R535A, V -60 mV): 4.67
pIC50 (R535A, V -80 mV): 4.59
pIC50 (R535A, V -100 mV): 4.52
pIC50 (R535A, V -120 mV): 4.46
pIC50 (R535A, V -140 mV): 4.41
